Results reported in paper PMC10116596 (Biochemistry, 2023).

Target: LcrH1–168 (Yersinia pestis, UniProt P21207)
Assay type: binding, Y. pestis
Settings: pH 7.8

LcrH1–168, sequence (P21207 whole entry, looked up): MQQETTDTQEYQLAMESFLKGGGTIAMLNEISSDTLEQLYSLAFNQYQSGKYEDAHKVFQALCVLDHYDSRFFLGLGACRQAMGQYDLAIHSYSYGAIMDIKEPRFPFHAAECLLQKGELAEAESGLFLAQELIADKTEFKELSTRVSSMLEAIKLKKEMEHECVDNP

Substance | ΔH | –TΔS
Ac-QGVQLPAPLA-NH2 [YopB48–57] | –44 ± 15 kJ/mol | 5.5 ± 3.59 kcal/mol
Ac-QVPELIKPSQ-NH2 [YopD56–65] | –51 ± 2 kJ/mol | 6.69 ± 0.48 kcal/mol
